From US11390621B2, “Chiral indole compounds and their use” (ARIAGEN, INC., priority 2019, dated 2022)
Several values for one entry are separate records, joined by “and”; a condition that tells them apart may be missing. Equal entries are not always repeated.

Tests used:
Format in all cases: in vitro ADME
rat hepatocytes = assay: Hepatocyte intrinsic clearance assay (metabolic stability), rat hepatocytes; details: for EH (hepatic extraction ratio): well stirred liver model, fu=1; for CLint lower than that of ARI-164 (fold): rat hepatocytes
Description: (§1) The liver is an important organ in the body for drug metabolism. This Example describes hepatocyte intrinsic clearance assays using both human and rat hepatocytes to evaluate the metabolic stability of the indole compounds disclosed herein. The parameters measured include t1/2 (half-life), CLint (intrinsic clearance), and EH (hepatic extraction ratio).
(§2) Testosterone (Lot FE111011-01) was obtained from Cerilliant (Round Rock, Tex.). 7-hydroxycoumarin (Lot 11631ED) was obtained from Sigma Aldrich (St. Louis, Mo.). Cryopreserved human hepatocytes pooled from ten donor males (X008001), cryopreserved male IRC/CD-1 mouse hepatocytes (M005052), INVITROGRO HI Medium (incubation), and INVITROGRO HT Medium (thawing) were obtained from Bioreclamation IVT (Baltimore, Md.). All solvents were obtained from commercial sources and used without further purification.
(§3) Each test compound was prepared as a 1 mM stock solution in DMSO. A 2 μM solution of test compound and positive controls were prepared in INVITROGRO HI Medium (incubation). These solutions were pre-warmed in a sterile incubator set to maintain 37° C., 5% CO2, and 98% humidity. Cryopreserved hepatocytes were prepared at a concentration of 2×10^6 living cells/mL in incubation media and pre-warmed in the incubator. The compound solutions and hepatocyte mixtures were then combined at a ratio of 1:1 (v:v). The final volume of the reaction mixture was 750 μL, containing 1 μM test compound (10 μM for 7-hydroxycoumarin) and […]. The reaction mixture was placed in the incubator on a plate shaker. After 0, 15, 30, 60, 90, and 120 minutes of incubation, 100 μL of reaction mixtures were removed from the incubation plate and mixed with 150 μL of ice-cold acetonitrile in a designated well of a 96-well crash plate. The 96-well crash plate was placed on ice for 15 min, and samples were centrifuged (3,600 RPM, 10 min, 4° C.) to precipitate protein. The supernatants were diluted 1:1 (v:v) with water containing 0.15 μM verapamil and/or 1 μM tolbutamide (internal standards for positive and negative modes, respectively) in a 96-well shallow injection plate. This plate was sealed for LC-MS analysis. All measurements were done in duplicate.
(§4) The residual compound remaining (% R) was determined from LC-MS peak areas by comparison to the zero time point. Metabolic half-life (t1/2) and intrinsic clearance (CLint) values were calculated from the slope of the plot of ln (% R) vs. time and the concentration of hepatocytes present in the incubation. Percent remaining at 60 minutes was calculated by plugging in the 60 minute value into the slope equation generated by the percent remaining time points.
(§5) In vivo hepatic clearance CLH was calculated using the well stirred liver model according to the following equation:
(§6) [formula] where QH is the total liver blood flow, fu is unbound fraction of the drug, and CL′int is defined as follows: CL′int=CLint×(10^6 cells/g of liver weight)×(g liver weight/kg of body weight). In the first approximation, used in this study, fu=1.
(§7) Hepatic extraction ratio EH was calculated using the following equation:
(§8) [formula] Corresponding physiological parameters used in calculations for all species are shown below in Table 3.

CYP3A4 = molecular target: T1, CYP3A4 (Homo sapiens, UniProt P08684); assay: CYP profiling: human liver microsomes with CYP3A4 inhibitor ketoconazole; set-up: % Compound Metabolized at 30 min, CYP3A4 Inhibitor: concentration or dose not given beside the values; details: HLMs; for % Inhibition Relative to Negative Control, 3A4: 30 min
T1 construct: from tissue; host or cells: human liver microsomes
Method: (§9) In order to investigate the contributions of CYP1A2 and CYP3A4 to the metabolism of the compounds of the present disclosure, human liver microsomes were incubated with the test compounds for 30 minutes in the presence of selective chemical inhibitors furafylline (1A2) and ketoconazole (3A4).

CYP1A2 = molecular target: T2, CYP1A2 (Homo sapiens, UniProt P05177); assay: CYP profiling: human liver microsomes with CYP1A2 inhibitor furafylline; set-up: % Compound Metabolized at 30 min, CYP1A2 Inhibitor: concentration or dose not given beside the values; details: HLMs; for % Inhibition Relative to Negative Control, 1A2: 30 min
T2 construct: from tissue; host or cells: human liver microsomes
T2 sequence (P05177 1-516): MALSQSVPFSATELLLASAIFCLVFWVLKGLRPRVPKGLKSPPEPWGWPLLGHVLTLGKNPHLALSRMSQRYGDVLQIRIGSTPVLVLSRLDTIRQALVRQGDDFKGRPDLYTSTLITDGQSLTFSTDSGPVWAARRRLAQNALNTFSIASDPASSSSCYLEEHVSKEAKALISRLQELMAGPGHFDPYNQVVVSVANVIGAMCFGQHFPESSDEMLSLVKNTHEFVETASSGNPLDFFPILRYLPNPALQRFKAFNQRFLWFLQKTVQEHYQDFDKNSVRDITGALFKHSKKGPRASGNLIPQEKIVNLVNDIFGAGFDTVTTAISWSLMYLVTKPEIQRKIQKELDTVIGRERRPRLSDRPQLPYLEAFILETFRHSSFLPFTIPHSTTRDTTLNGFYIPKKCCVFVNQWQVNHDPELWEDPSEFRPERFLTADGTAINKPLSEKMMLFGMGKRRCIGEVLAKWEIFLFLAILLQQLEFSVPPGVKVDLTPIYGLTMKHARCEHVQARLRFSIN
Method: as §9

[1] = Hepatocyte intrinsic clearance assay (metabolic stability), rat hepatocytes; details: rat, cryopreserved hepatocytes, Rat Hepatocytes, 1 μM test compound
Description: as §1, §2, §3, §4, §5, §6, §7, §8

T1 sequence (P08684 whole entry): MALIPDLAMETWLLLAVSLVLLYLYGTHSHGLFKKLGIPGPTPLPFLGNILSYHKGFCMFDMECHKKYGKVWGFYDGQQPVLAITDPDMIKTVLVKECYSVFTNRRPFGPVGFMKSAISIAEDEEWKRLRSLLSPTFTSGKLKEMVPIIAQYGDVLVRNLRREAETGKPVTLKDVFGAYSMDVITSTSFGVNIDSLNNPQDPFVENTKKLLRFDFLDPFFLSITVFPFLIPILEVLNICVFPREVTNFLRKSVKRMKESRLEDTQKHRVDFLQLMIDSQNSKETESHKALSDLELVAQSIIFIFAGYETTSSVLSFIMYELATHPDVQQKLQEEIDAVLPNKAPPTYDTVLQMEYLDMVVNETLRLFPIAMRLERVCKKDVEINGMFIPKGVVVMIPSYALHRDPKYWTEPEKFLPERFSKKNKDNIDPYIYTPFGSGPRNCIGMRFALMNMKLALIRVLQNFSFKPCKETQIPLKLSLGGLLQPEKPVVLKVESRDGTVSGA

Compound | EH (hepatic extraction ratio) (rat hepatocytes; Rat Hepatocytes) | % Compound Metabolized at 30 min, CYP3A4 Inhibitor (CYP3A4) | % Inhibition Relative to Negative Control, 3A4 (CYP3A4) | % Compound Metabolized at 30 min, CYP1A2 Inhibitor (CYP1A2) | % Inhibition Relative to Negative Control, 1A2 (CYP1A2) | half-life at 1 μM [1] | hepatocyte CLint at 1 μM [1] | CLint (rat hepatocytes; Rat Hepatocytes, 1 μM test compound) | CLint lower than that of ARI-164 (fold) (rat hepatocytes)
CCC(=O)c1csc(C(=O)c2c[nH]c3cc(F)ccc23)n1 [ARI-143, 1-(2-(6-fluoro-1H-indole-3-carbonyl)thiazol-4-yl)propan-1-one] | 48.0% and 47.8% and 48.5% and 49.7% and 74.6% | 82% and 92% | None | 32% and 17% | 54% and 81% |  |  |  | 
CC[C@H](O)c1csc(C(=O)c2c[nH]c3cc(F)ccc23)n1 [ARI-164, (S)-(6-Fluoro-1H-indol-3-yl)(4-(1-hydroxypropyl)thiazol-2-yl)methanone] | 33.3% and 34.6% and 28.8% and 35.0% and 48.8% | 34% | 8% | 4% | 89% |  |  |  | 
CC[C@H](N)c1csc(C(=O)c2c[nH]c3cc(F)ccc23)n1 [ARI-186, (S)-(4-(1-aminopropyl)thiazol-2-yl)(6-fluoro-1H-indol-3-yl)methanone] | 21.6% | 12% | 8% | 10% | 23% | 2.8 h | 4.1 µL/min/1e6 cells | 4.127 μL/min/10^6 cells | 1.8 ×
CC[C@@H](N)c1csc(C(=O)c2c[nH]c3cc(F)ccc23)n1 [ARI-187, (R)-(4-(1-aminopropyl)thiazol-2-yl)(6-fluoro-1H-indol-3-yl)methanone] | 24.8% | 3% | 25% | 7% | None | 2.3 h | 4.93 µL/min/1e6 cells |  | 
O=C(c1nc([C@@H](O)C(F)(F)F)cs1)c1c[nH]c2cc(F)ccc12 [ARI-211] | 17.7% | 59% | None | 67% | None | 3.6 h | 3.21 µL/min/1e6 cells |  | 
O=C(c1nc([C@H](O)C(F)(F)F)cs1)c1c[nH]c2cc(F)ccc12 [ARI-212] | 20.5% | 24% | 44% | 51% | None | 3 h | 3.85 µL/min/1e6 cells |  | 
CC[C@H](N)c1csc(C(=O)c2c[nH]c3ccc(F)cc23)n1 [ARI-218] | 42.5% | 0% | 100% | 17% | None | 1 h | 11.1 µL/min/1e6 cells |  | 
CC[C@@H](N)c1csc(C(=O)c2c[nH]c3ccc(F)cc23)n1 [ARI-219] | 58.9% | 23% | None | 5% | 62% | 0.5 h | 21.4 µL/min/1e6 cells |  | 
CC(C)(O)c1csc(C(=O)c2c[nH]c3cc(F)ccc23)n1 [ARI-220, (6-fluoro-1H-indol-3-yl)(4-(2-hydroxypropan-2-yl)thiazol-2-yl)methanone] | 24.2% | 27% | 34% | 0% | 100% | 2.4 h | 4.77 µL/min/1e6 cells |  | 
O=C(c1nc(C2(O)CC2)cs1)c1c[nH]c2cc(F)ccc12 [ARI-221, (6-fluoro-1H-indol-3-yl)(4-(1-hydroxycyclopropyl)thiazol-2-yl)methanone] | 27.1% | 82% | 14% | 28% | 71% | 2.1 h | 5.55 µL/min/1e6 cells |  | 
N[C@H](c1csc(C(=O)c2c[nH]c3cc(F)ccc23)n1)C(F)(F)F [ARI-223] | 63.1% | 42% | 47% | 12% | 85% | 0.5 h | 25.6 µL/min/1e6 cells |  | 
N[C@@H](c1csc(C(=O)c2c[nH]c3cc(F)ccc23)n1)C(F)(F)F [ARI-224] | 29.0% | 8% | 11% | 7% | 22% | 1.9 h | 6.12 µL/min/1e6 cells |  | slightly lower
NC1(c2csc(C(=O)c3c[nH]c4cc(F)ccc34)n2)CC1 [ARI-225, (4-(1-aminocyclopropyl)thiazol-2-yl)(6-fluoro-1H-indol-3-yl)methanone] | 60.8% | 29% | 26% | 10% | 74% | 0.5 h | 23.2 µL/min/1e6 cells |  | 
CC(C)(N)c1csc(C(=O)c2c[nH]c3cc(F)ccc23)n1 [ARI-226, (4-(2-aminopropan-2-yl)thiazol-2-yl)(6-fluoro-1H-indol-3-yl)methanone] | 30.4% | 11% | None | 16% | None | 1.8 h | 6.54 µL/min/1e6 cells |  | slightly lower
N[C@H](c1csc(C(=O)c2c[nH]c3ccccc23)n1)C(F)(F)F [ARI-228] | 88.2% | 75% | 16% | 23% | 74% | 0.1 h | 112 µL/min/1e6 cells |  | 
